According to patent US20250041461A1, “[177LU] LUTETIUM-PSMA I&T COMPOSITION AND DOSIMETRY, KIT, METHOD OF MAKING, AND METHOD OF USING THEREOF” (Curium US LLC, priority 2023, published 2025):

Assay: Example 10 dosimetry, 27 mCRPC patients, planar whole-body conjugate imaging and SPECT/CT, MIRD method
Type: in vivo, human
Protocol: Radiation dosimetry of [^177Lu]Lu-PSMA-I&T was calculated in 27 patients with mCRPC based on biodistribution data from planar whole-body conjugate imaging at 1, 24, 48, 72, and 168 hours and, for 7 of them, SPECT/CT imaging at 48-72 hours post injection of their first cycle of [^177Lu]Lu-PSMA-I&T (6.8±10% GBq).
Regions of interest were drawn on the planar images.
Volumes of interest were constructed on the SPECT and CT
For each subject, kinetic data were modeled to determine
normalized number of disintegrations in organs and tissues, from which the absorbed dose estimates were computed using the MIRD method.

[1] = 27 patients, first cycle, 6.8 GBq, planar imaging
[2] = Bladder Wall, 27 patients, first cycle
[3] = Heart Wall, 27 patients, first cycle
[4] = Kidneys, 27 patients, first cycle
[5] = Lacrimal Glands, 27 patients, first cycle
[6] = Left Colon, 27 patients, first cycle
[7] = Liver, 27 patients, first cycle
[8] = Red Marrow, 27 patients, first cycle
[9] = Salivary Glands, 27 patients, first cycle
[10] = Spleen, 27 patients, first cycle
[11] = Thyroid, 27 patients, first cycle
[12] = cumulative administered activity of 27.2 GBq, four cycles of 6.8 GBq

O=C([O-])CC[C@H](NC(=O)N[C@@H](CCCCNC(=O)CCCCCCC(=O)NCCCC[C@@H](NC(=O)[C@@H](Cc1ccccc1)NC(=O)[C@@H](Cc1ccc(O)c(I)c1)NC(=O)CC[C@H](C(=O)[O-])N1CCN(CC(=O)[O-])CCN(CC(=O)[O-])CCN(CC(=O)[O-])CC1)C(=O)[O-])C(=O)[O-])C(=O)[O-].[177Lu+3].[H+].[H+].[H+].[H+].[H+] [^177Lu-PSMA I&T, (3S,7S,26R,29R,32R,37R)-29-benzyl-32-(4-hydroxy-3-iodobenzyl)-5,13,20,28,31,34-hexaoxo-37-(4,7,10-tris(carboxymethyl)-1,4,7,10-tetraazacyclododecan-1-yl)-4,6,12,21,27,30,33-heptaazaheptatriacontane-1,3,7,26,37-pentacarboxylic acid; lutetium-177 (III)]
absorbed dose, kidneys [1]: 0.73 Gy/GBq
absorbed dose, lacrimal glands [1]: 1.2 Gy/GBq
average dose, red marrow [1]: 0.034 Gy/GBq
average dose, salivary glands [1]: 0.34 Gy/GBq
dose estimate, Max [2]: 0.36 mGy/MBq or Gy/GBq
dose estimate, Mean [2]: 0.33 mGy/MBq or Gy/GBq
dose estimate, Min [2]: 0.14 mGy/MBq or Gy/GBq
Absorbed Dose, Mean (Bladder, SPLASH): 0.33 Gy/GBq
Absorbed Dose, Mean (Bone Marrow, SPLASH): 0.034 Gy/GBq
dose estimate, Max [3]: 0.15 mGy/MBq or Gy/GBq
dose estimate, Mean [3]: 0.036 mGy/MBq or Gy/GBq
dose estimate, Min [3]: 0.017 mGy/MBq or Gy/GBq
dose estimate, Mean (Heart Wall, Splash): 0.04 Gy/GBq
Absorbed Dose, Mean (Heart, SPLASH): 0.036 Gy/GBq
dose estimate, Max [4]: 1.8 mGy/MBq or Gy/GBq
dose estimate, Mean [4]: 0.73 mGy/MBq or Gy/GBq
dose estimate, Min [4]: 0.22 mGy/MBq or Gy/GBq
Absorbed Dose, Mean (Kidneys, Splash): 0.73 Gy/GBq
dose estimate, Mean (Kidneys, Splash): 0.73 Gy/GBq
dose estimate, Max [5]: 6.7 mGy/MBq or Gy/GBq
dose estimate, Mean [5]: 1.2 mGy/MBq or Gy/GBq
dose estimate, Min [5]: 0.38 mGy/MBq or Gy/GBq
Absorbed Dose, Mean (Lacrimal Glands, SPLASH): 1.2 Gy/GBq
dose estimate, Mean (Lacrimal gland, Splash): 1.20 Gy/GBq
dose estimate, Max [6]: 1.5 mGy/MBq or Gy/GBq
dose estimate, Mean [6]: 0.52 mGy/MBq or Gy/GBq
dose estimate, Min [6]: 0.013 mGy/MBq or Gy/GBq
Absorbed Dose, Mean (Left colon, Splash): 0.52 Gy/GBq
dose estimate, Mean (Left colon, Splash): 0.52 Gy/GBq
dose estimate, Max [7]: 0.24 mGy/MBq or Gy/GBq
dose estimate, Mean [7]: 0.051 mGy/MBq or Gy/GBq
dose estimate, Min [7]: 0.025 mGy/MBq or Gy/GBq
Absorbed Dose, Mean (Liver, Splash): 0.051 Gy/GBq
dose estimate, Mean (Liver, Splash): 0.051 Gy/GBq
dose estimate, Max [8]: 0.11 mGy/MBq or Gy/GBq
dose estimate, Mean [8]: 0.034 mGy/MBq or Gy/GBq
dose estimate, Min [8]: 0.014 mGy/MBq or Gy/GBq
dose estimate, Mean (Red Marrow, Splash): 0.03 Gy/GBq
dose estimate, Max [9]: 1.5 mGy/MBq or Gy/GBq
dose estimate, Mean [9]: 0.34 mGy/MBq or Gy/GBq
dose estimate, Min [9]: 0.14 mGy/MBq or Gy/GBq
Absorbed Dose, Mean (Salivary glands, Splash): 0.34 Gy/GBq
dose estimate, Mean (Salivary glands, Splash): 0.34 Gy/GBq
dose estimate, Max [10]: 0.80 mGy/MBq or Gy/GBq
dose estimate, Mean [10]: 0.16 mGy/MBq or Gy/GBq
dose estimate, Min [10]: 0.022 mGy/MBq or Gy/GBq
Absorbed Dose, Mean (Spleen, Splash): 0.16 Gy/GBq
dose estimate, Mean (Spleen, Splash): 0.16 Gy/GBq
dose estimate, Max [11]: 0.77 mGy/MBq or Gy/GBq
dose estimate, Mean [11]: 0.17 mGy/MBq or Gy/GBq
dose estimate, Min [11]: 0.011 mGy/MBq or Gy/GBq
Absorbed Dose, Mean (Thyroid, Splash): 0.17 Gy/GBq
dose estimate, Mean (Thyroid, Splash): 0.17 Gy/GBq
dose estimate, Mean (Urinary bladder wall, Splash): 0.33 Gy/GBq
cumulative absorbed dose, kidneys [12]: 19.9 Gy
cumulative absorbed dose, red marrow [12]: 0.91 Gy
